Values quoted from earlier work, collected in patent publication US11452734B2, “Method of treating and preventing secondary hyperparathyroidism” (OPKO IRELAND GLOBAL HOLDINGS, LTD., priority 2006, dated 2022).

Target: T1, Vitamin D receptors (VDR) (Homo sapiens, UniProt P11473)
T1 sequence (P11473 1-427): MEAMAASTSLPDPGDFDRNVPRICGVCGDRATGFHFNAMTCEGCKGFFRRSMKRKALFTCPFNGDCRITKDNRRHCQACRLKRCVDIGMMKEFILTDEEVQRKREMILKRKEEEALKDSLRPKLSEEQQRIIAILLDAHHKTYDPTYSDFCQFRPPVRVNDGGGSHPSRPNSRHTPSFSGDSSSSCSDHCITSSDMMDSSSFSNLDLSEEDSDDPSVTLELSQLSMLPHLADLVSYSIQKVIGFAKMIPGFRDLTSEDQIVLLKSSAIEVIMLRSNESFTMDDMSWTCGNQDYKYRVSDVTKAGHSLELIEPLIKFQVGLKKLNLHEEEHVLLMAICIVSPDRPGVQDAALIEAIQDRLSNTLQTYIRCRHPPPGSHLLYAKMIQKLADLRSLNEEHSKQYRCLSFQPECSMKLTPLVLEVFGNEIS

Row | affinities for the VDR, compared among the three Vitamin D hormones | Structure (SMILES)
1 | nearly identical | C=C1/C(=C\C=C2/CCC[C@]3(C)[C@@H]([C@H](C)/C=C/[C@H](C)C(C)(C)O)CC[C@@H]23)C[C@@H](O)C[C@@H]1O [1α,25-dihydroxyvitamin D2]
2 | nearly identical | C=C1/C(=C\C=C2/CCC[C@]3(C)[C@@H]([C@H](C)/C=C/[C@@](C)(O)C(C)C)CC[C@@H]23)C[C@@H](O)C[C@@H]1O [1α,24(S)-dihydroxyvitamin D2]
